The record followed here is article PMC12811658, “Design, Synthesis, and Structural Evolution of Pseudo‐Natural Product IDO1 Inhibitors and Degraders” (Angewandte Chemie (International Ed. in English), 2025).

One experiment has as its target T1, recombinant human IDO1 (Homo sapiens, UniProt P14902).
T1 construct: The GST-tag of IDO1 was removed to obtain untagged full-length IDO1l using PreScission protease; GST (N, cleaved yes); made in house; own inference
Kind of experiment: IDO1 enzymatic assay in vitro. It counts as biochemical. Particulars: pre-incubation 37 °C 45 min.

The target of experiment [1] is T2, recombinant full-length human IDO1 (Homo sapiens, UniProt P14902).
T2 construct: The GST-tag of IDO1 was removed to obtain untagged full-length IDO1l using PreScission protease; GST (N, cleaved yes); made in house; own inference
In words: Isothermal titration calorimetry (ITC). It counts as binding. Particulars: 25 °C. Here is the method: (§1) Incubation at 37 °C for 3 h. Representative data for n = 3. c) Time‐course of heme displacement from IDO1 detected by the absorbance at the Soret peak (404 nm) as a function of time. […] All curves were fit using a one‐site model with N = 1 and defined IDO1 concentration. Left plots show baseline corrected data, while right plots show integrated binding isotherms versus iDegs/IDO1 ratio. IDO1 protein (125 µM) was titrated into the stirred sample cell containing iDegs (25 µM, except for iDeg‐8 at 50 µM). Representative data for n = 3, except for iDeg‐9 (n = 2). g)–i) In vivo activity of iDeg‐6. NSG immunodeficient mice were injected with SKOV‐3 cells. Mice were treated with 18 intraperitoneal injections of iDeg‐6 (30 mg kg^−1) or vehicle. The pharmacological treatment was twice daily. Tumor volume was determined weekly by digital caliper. g) SKOV‐3 tumor growth curves in iDeg‐6‐treated mice (n = 12, green lines) or vehicle‐treated mice (n = 13, gray lines). Statistical analysis was performed by two‐way ANOVA: ****p < 0.001. h) Body weight changes during treatment window (mean values ± range). i) Survival data are shown by Kaplan‐Meier survival analysis. Mantel–Haenszel statistical analysis: p < 0.0001).
ITC was performed using the MicroCal PEAQ-ITC system (Malvern) at 25 °C. Recombinant human full-length IDO1 (rhIDO1) was buffer-exchanged into 100 mM phosphate buffer (50 mM KH₂PO₄ and 50 mM K₂HPO₄, pH 6.57) with 1 mM TECP using a 10 K Amicon® Ultra centrifugal filter (Millipore). The buffer exchange was repeated ten times to ensure complete removal of interfering components. The final protein sample was diluted in the same phosphate buffer prior to titration.125 μM protein in 100 mM phosphate buffer was loaded into the syringe, while 25 μM compound (except for iDeg-8, 50 μM) in 100 mM phosphate buffer was loaded to the cell. All samples were adjusted to 25 °C and degassed before loading. Titrations were performed at 25 °C with one injection of 0.4 µL, followed by 18 injections of 2 µL. Experiments were performed with three biological replicates except for iDeg-9 with two biological replicates. Data were analyzed using the MicroCal PEAQ-ITC Analysis software and were plotted using GraphPad Prism 9.0 (GraphPad, USA).

The test system of experiment [2] is Kyn levels in BxPC3 cells (kynurenine generated by IDO1). Kind of experiment: Cellular Kyn assay (automated Kyn screening assay). The format is cell-based. Particulars: Homo sapiens, BXPC-3, 48 h, IFN-γ, L-Trp and compounds 48 h, mean ± SD, read-out: IC50 (Kyn assay), reduction of kynurenine levels.
Experiment [3] has as its target T3, heme-bound IDO1 (holo-IDO1) (Homo sapiens, UniProt P14902).
T3 construct: The GST-tag of IDO1 was removed to obtain untagged full-length IDO1l using PreScission protease; GST (N, cleaved yes); made in house; own inference
In words: UV/Vis detection of heme-bound IDO1 (heme displacement). As to conditions: 50 µM. It counts as binding. Here is the method:
as §1
Representative data of n=3 biological replicates. c, IDO1 was incubated with compounds (50 µM) or DMSO (control). UV/VIS spectra were acquired at five time points to monitor heme loss over time. Data are representative of two replicates.
The test compounds or DMSO (vehicle control) were incubated with recombinant full-length human IDO1 (rhIDO1; 10 µM) in 50 mM potassium phosphate buffer (pH 6.5) for 3 h at 37 °C. Following incubation, samples were centrifuged at 5,000 × g for 10 minutes. UV/Vis absorption spectra were then recorded from 250 nm to 650 nm in 1 nm increments using UV-transparent microplates (UV-STAR®, Greiner Bio-One, Austria) on a Spark® multimode microplate reader (Tecan, Austria). Absorbance values were analyzed at 404 nm (A404), and were plotted using GraphPad Prism version 9.0 (GraphPad Software, USA).

In experiment [4] the target is IDO1 protein levels in BxPC3 cells (Homo sapiens, UniProt P14902). Kind of experiment: IDO1 immunoblotting (degradation). The format is cell-based. On the set-up: endogenous in cells; host or cells: BxPC3 (DSMZ), IFN-γ stimulated. As to conditions: for Max. degradation (%): 24 h incubation, mean ± SD. In general terms: Immunoblotting shows a protein as a band on a membrane.

The target in experiment [5] is T2, recombinant full-length human IDO1. Kind of experiment: Thermal shift assay (nanoDSF). As to conditions: 50 µM, 3 h at 37 °C. The format is binding. As to the method: as §1, with “0.0001). […]” for “0.0001).”
The test compounds or DMSO (vehicle control) were incubated with recombinant full-length human IDO1 (rhIDO1; 10 µM) in 50 mM potassium phosphate buffer (pH 6.5) for 3 h at 37 °C. Following incubation, samples were centrifuged at 5,000 × g for 10 minutes, then the protein-compound solutions were loaded into capillaries, and thermal unfolding was assessed using the Prometheus Panta system (NanoTemper® Technologies, Germany). Fluorescence intensities at 330 nm and 350 nm were recorded at temperature increments of 0.115 °C from 20 °C to 90 °C. Melting temperatures (Tm) were automatically calculated using Prometheus NT.48 analysis software. The resulting thermal denaturation curves, with Tm defined as the temperature at the maximum derivative of the unfolding transition, were visualized and analysed using GraphPad Prism version 9.0 (GraphPad Software, USA).
(In DSF a fluorescence change marks the thermal transition of the protein.)

IDO1 protein levels in BxPC3 cells, sequence (P14902 whole entry): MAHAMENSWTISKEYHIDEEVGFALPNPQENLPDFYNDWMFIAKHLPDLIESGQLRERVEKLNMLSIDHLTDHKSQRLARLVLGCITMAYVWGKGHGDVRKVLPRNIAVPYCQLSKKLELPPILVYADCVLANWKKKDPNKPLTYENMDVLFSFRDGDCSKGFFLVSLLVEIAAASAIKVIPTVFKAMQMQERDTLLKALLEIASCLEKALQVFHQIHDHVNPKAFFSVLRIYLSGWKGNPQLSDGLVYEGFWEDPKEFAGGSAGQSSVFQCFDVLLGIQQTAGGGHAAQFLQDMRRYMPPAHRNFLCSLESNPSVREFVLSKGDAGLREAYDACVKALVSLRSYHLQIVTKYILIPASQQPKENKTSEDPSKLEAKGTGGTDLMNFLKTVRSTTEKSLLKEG
T2 sequence (P14902 whole entry): as above
T1 sequence (P14902 whole entry): as above
T3 sequence (P14902 whole entry): as above

`C#Cc1ccc(NC(=O)OC[C@]23CN(S(=O)(=O)c4ccc(C(C)(C)C(=O)O)cc4C)C[C@H]2C[C@H]2C[C@@H]3C2(C)C)cc1` [102 (iDeg-9), 2-(4-(((3aS,4R,6R,7aS)-3a-((((4-ethynylphenyl)carbamoyl)oxy)methyl)-5,5-dimethyloctahydro-2H-4,6-methanoisoindol-2-yl)sulfonyl)-3-methylphenyl)-2-methylpropanoic acid]: the inhibition (usually the percentage by which the read-out fell short of the control) at 14 µM at recombinant human IDO1 (at 14 µM, mean ± SD) was found to be 64 ± 1%. On recombinant human IDO1 (determined if inhibition at 14 µM higher than 50%), the IC50 – broadly, the concentration needed to halve the response being measured – came out at 0.089 ± 0.03 µM. Further, in experiment [1], the “-TΔS (ITC)” value stood at 15.6 kcal/mol, the Kd (usually the equilibrium constant for the complex coming apart) amounted to 215 nM, the “ΔG (ITC)” value is -9.1 kcal/mol and the “ΔH (ITC)” value is -24.7 ± 0.3 kcal/mol. Also, the Kd in experiment [1] (one-site model) was found to be 220 ± 20 nM. In addition, the IC50 in experiment [2] was found to be 5 nM. The “heme displacement from holo-IDO1 (in words)” value in experiment [3] (37 °C, 3 h, Soret band 404 nm) is recorded as “most efficient heme displacement”. The “time course of heme displacement (in words)” value in experiment [3] (absorbance at 404 nm over time, compared to iDeg-6 and -8) is listed as “faster”. Besides, in experiment [4] (10 nM), the “Max. degradation (%)” value is on record as 20 ± 9 (9) %. The “Max. degradation (%)” value in experiment [4] (100 nM) is reported as 21 ± 20 (9) %. For the same compound, in experiment [4] (BXPC-3, @100 nM, BxPC3 cells), the Dmax (commonly the largest share of the target that was removed) at 0.1 µM stood at 21%. In addition, the “IDO1 protein level by immunoblotting (in words)” value in experiment [4] (BxPC3 cells, IFN-γ 24 h, washout, compounds 24 h) was “barely affected the IDO1 level”. Moreover, in experiment [5], the “shift in IDO1 melting temperature ΔTm / binding in TSA (in words)” value is listed as “highest ΔT m value”.
